Reference: ChEMBL document CHEMBL6134860, “Discovery and optimization of a novel carboxamide scaffold with selective antimalarial activity” (Eur J Med Chem, 2025)

Assays:
Plasmodium falciparum [1] = assay: microbe, parasite or virus in culture; format: functional, organism-based; settings: 3D7, 72 h
Plasmodium falciparum [2] = assay: microbe, parasite or virus in culture; format: functional, organism-based; settings: D6, 72 h
Plasmodium falciparum [3] = assay: microbe, parasite or virus in culture; format: functional, organism-based; settings: C2B, 72 h
Plasmodium falciparum [4] = assay: microbe, parasite or virus in culture; format: functional, organism-based; settings: W2, 72 h
Plasmodium falciparum [5] = assay: microbe, parasite or virus in culture; format: functional, organism-based; settings: C235, 72 h
[6] = Cytotoxicity against human HepG2 cells measured after 72 hrs by hoechst 33342 staining based imaging assay; format: toxicity, cell-based

Compound | EC50 (Plasmodium falciparum [4]; read-out: pEC50 (converted)) | EC50 (Plasmodium falciparum [4]; read-out: EC50) | CC50 at 72 h ([6]; read-out: CC50) | CC50 at 72 h ([6]; read-out: pCC50 (converted)) | other results
O=C1C(O)=C([C@H]2CC[C@H](c3ccc(Cl)cc3)CC2)C(=O)c2ccccc21 [ATOVAQUONE] | 0.000759 µM |  |  |  | EC50 (Plasmodium falciparum [1]; read-out: pEC50 (converted)): 0.000851 µM; EC50 (Plasmodium falciparum [2]; read-out: pEC50 (converted)): 0.000603 µM; EC50 (Plasmodium falciparum [3]; read-out: pEC50 (converted)): < 1 µM; EC50 (Plasmodium falciparum [5]; read-out: pEC50 (converted)): 0.00195 µM
[2H]C([2H])([2H])N(C(=O)c1cc(-c2ccc(Cl)cc2)ccn1)c1ccc(Cl)cc1 | 0.2 µM | 198 µM |  |  | EC50 (Plasmodium falciparum [1]; read-out: EC50): 0.588 µM; EC50 (Plasmodium falciparum [1]; read-out: pEC50 (converted)): 0.589 µM; EC50 (Plasmodium falciparum [2]; read-out: EC50): 0.608 µM; EC50 (Plasmodium falciparum [2]; read-out: pEC50 (converted)): 0.603 µM; EC50 (Plasmodium falciparum [3]; read-out: EC50): 0.104 µM; EC50 (Plasmodium falciparum [3]; read-out: pEC50 (converted)): 0.105 µM; EC50 (Plasmodium falciparum [5]; read-out: EC50): 0.199 µM; EC50 (Plasmodium falciparum [5]; read-out: pEC50 (converted)): 0.2 µM
CN(C(=O)c1ncc(-c2ccc(Cl)cc2)o1)c1ccc(Cl)cc1 | 0.17 µM | 0.17 µM |  |  | EC50 (Plasmodium falciparum [1]; read-out: EC50): 0.502 µM; EC50 (Plasmodium falciparum [1]; read-out: pEC50 (converted)): 0.501 µM; EC50 (Plasmodium falciparum [2]; read-out: EC50): 0.84 µM; EC50 (Plasmodium falciparum [2]; read-out: pEC50 (converted)): 0.832 µM; EC50 (Plasmodium falciparum [3]; read-out: EC50): 0.168 µM; EC50 (Plasmodium falciparum [3]; read-out: pEC50 (converted)): 0.166 µM; EC50 (Plasmodium falciparum [5]; read-out: EC50): 0.281 µM; EC50 (Plasmodium falciparum [5]; read-out: pEC50 (converted)): 0.282 µM
COc1ccc(N(C)C(=O)c2ncn(-c3ccc(C)cc3)n2)cc1 | > 4.07 µM | > 4.11 µM | > 10 µM | > 10 µM | 
O=C(Nc1ccc(Cl)c(Cl)c1)c1ncn(-c2ccc(Cl)cc2)n1 | > 10 µM | > 10 µM | > 10 µM | > 10 µM | 
Cc1ccc(N(C)C(=O)c2ncn(-c3ccc(Cl)cc3)n2)cc1C | 2.34 µM |  | > 10 µM | > 10 µM | 
Cc1ccc(NC(=O)c2ncn(-c3ccc(Cl)cc3)n2)cc1C | > 2.88 µM | > 2.89 µM | > 10 µM | > 10 µM | 
CN(C(=O)c1ncn(-c2ccc(Cl)cc2)n1)c1ccc(F)cc1 | 1.78 µM |  | > 10 µM | > 10 µM | 
C[C@H]1[C@@H](O)O[C@@H]2O[C@@]3(C)CC[C@H]4[C@H](C)CC[C@@H]1[C@@]24OO3 [ARTENIMOL] | 0.000417 µM |  |  |  | EC50 (Plasmodium falciparum [1]; read-out: pEC50 (converted)): 0.000661 µM; EC50 (Plasmodium falciparum [2]; read-out: pEC50 (converted)): 0.00155 µM; EC50 (Plasmodium falciparum [3]; read-out: pEC50 (converted)): 0.000178 µM; EC50 (Plasmodium falciparum [5]; read-out: pEC50 (converted)): 0.00295 µM
CN(C(=O)c1cnc(-c2ccc(Cl)cc2)[nH]1)c1ccc(Cl)cc1 | > 2.24 µM | > 2.26 µM | > 10 µM | > 10 µM | 
CN(C(=O)c1ncn(-c2ccc(Cl)cc2)n1)c1ccc(Cl)c(Cl)c1 | 0.933 µM |  | > 10 µM | > 10 µM | 
Cc1ccc(-c2cnc(C(=O)N(C)c3ccc(Cl)cc3)o2)cc1 | 0.676 µM |  | > 10 µM | > 10 µM | 
CCc1ccc(N(C)C(=O)c2ncn(-c3ccc(Cl)cc3)n2)cc1 | > 5.25 µM | > 5.24 µM | > 10 µM | > 10 µM | 
Cc1ccc(-c2ccnc(C(=O)N(C)c3ccc(Cl)cc3)c2)cc1 | 0.49 µM |  | > 10 µM | > 10 µM | 
Cc1ccc(N(C)C(=O)c2ncn(-c3ccc(C(C)C)cc3)n2)cc1 | 0.741 µM |  | > 10 µM | > 10 µM | 
Cc1ccc(-c2cnc(C(=O)N(C)c3ccc(Cl)cc3)s2)cc1 | > 10 µM | > 10 µM | > 10 µM | > 10 µM | 

Compound | EC50 (Plasmodium falciparum [4]; read-out: pEC50 (converted)) | EC50 (Plasmodium falciparum [4]; read-out: EC50) | CC50 at 72 h ([6]; read-out: CC50) | CC50 at 72 h ([6]; read-out: pCC50 (converted)) | other results
CN(C(=O)c1cnc(-c2ccc(Cl)cc2)s1)c1ccc(Cl)cc1 | > 10 µM | > 10 µM | > 10 µM | > 10 µM | 
Cc1ccc(N(C)C(=O)c2cn(-c3ccc(Cl)cc3)nn2)cc1 | > 10 µM | > 10 µM | > 10 µM | > 10 µM | 
Cc1ccc(-n2cc(C(=O)N(C)c3ccc(Cl)cc3)nn2)cc1 | > 10 µM | > 10 µM | > 10 µM | > 10 µM | 
O=C(c1ccc(Cl)cc1)c1cc(-c2ccc(Cl)cc2)ccn1 | > 10 µM | > 10000 µM | > 10 µM | > 10 µM | 
O=C(Nc1ccc(Cl)cc1)c1ncn(-c2ccc(Cl)cc2)n1 | > 6.46 µM | > 6.44 µM | > 10 µM | > 10 µM | 
Cc1nc(-c2ccc(Cl)cc2)sc1C(=O)N(C)c1ccc(Cl)cc1 | > 10 µM | > 10 µM | > 10 µM | > 10 µM | 
CN(C(=O)c1ncn(-c2ccc(Cl)cc2)n1)c1ccc(Cl)cc1 | 0.525 µM |  | > 10 µM | > 10 µM | 
Cc1ccc(-c2ncc(C(=O)N(C)c3ccc(Cl)cc3)[nH]2)cc1 | 3.39 µM |  | > 10 µM | > 10 µM | 
O=C(Nc1ccc([N+](=O)[O-])cc1)c1ncn(-c2ccc(Cl)cc2)n1 | > 10 µM | > 10 µM | > 10 µM | > 10 µM | 
CN(C(=O)c1ncn(-c2ccc(Cl)cc2)n1)c1ccc([N+](=O)[O-])cc1 | 2.29 µM |  | > 10 µM | > 10 µM | 
CCc1ccc(-n2cnc(C(=O)N(C)c3cccc(C)c3)n2)cc1 | > 4.27 µM | > 4.26 µM | > 10 µM | > 10 µM | 
COc1ccc(-n2cnc(C(=O)N(C)c3ccc(C)cc3)n2)cc1 | 5.75 µM |  | > 10 µM | > 10 µM | 
Cc1cccc(N(C)C(=O)c2ncn(-c3ccc(C(C)C)cc3)n2)c1 | > 3.31 µM | > 3.33 µM | > 10 µM | > 10 µM | 
CN(C(=O)c1ncc(-c2ccc(Cl)cc2)s1)c1ccc(Cl)cc1 | > 6.76 µM | > 6.75 µM | > 10 µM | > 10 µM | 
COc1ccc(N(C)C(=O)c2ncn(-c3ccc(OC)cc3)n2)cc1 | > 10 µM | > 10 µM | > 10 µM | > 10 µM | 
Cc1ccc(C(=O)Nc2ncn(-c3ccc(C)cc3)n2)cc1 | 2.51 µM |  | > 10 µM | > 10 µM | 
